Measurements published in US20110263588A1, “TRICYCLIC COMPOUNDS AS GLUTAMATE RECEPTOR MODULATORS” (GLAXO GROUP LIMITED, priority 2008, published 2011).
Like-named read-outs stand apart in the source and are kept apart here.

Target: T1, human mGlu5 recombinant receptor (Homo sapiens, UniProt P41594)
T1 construct: expressed in transfected cells; host or cells: inducible CHO cell line stably expressing Aequorin (Euroscreen FAST); doxycycline-responsive promoter
Test: mGluR5 calcium mobilization in inducible mGluR5 CHO cells (aequorin luminescence, antagonist mode)
Assay type: cell-based
Conditions: antagonist activity against EC80 glutamate, inducible CHO cell line expressing human mGlu5 and Aequorin, read-out: IC50 (uM) Ca^++ flux
Text: mGluR5 Calcium Mobilization in Inducible mGluR5 CHO Cells
To functionally measure mGluR5 calcium mobilization in response to agonists or antagonists, an inducible CHO cell line expressing the human mGlu5 recombinant receptor was used. This cell line also stably expressed Aequorin (Euroscreen FAST), a photoprotein that spontaneously couples with coelenterazine h when added exogenously in the cell media. The Aequorin-coelenterzine h complex undergoes a conformational change upon binding of calcium ions which results in the emission of blue light (wavelength 469 nm) that was measured using a Hamamatsu Functional Drug Screening System 6000.
mGluR5 expression was induced by a doxycycline responsive promoter by growing cells to mid-log phase for 18 hours in media without antibiotics and supplemented with doxycycline (600 ng/mL). Cells were detached from the plate by gentle flushing using PBS-EDTA (5 mM EDTA) and centrifuged for collection and resuspended in “assay buffer” (HBSS, 2.1 mM CaCl2, 2 ug/mL glutamate-pyruvate transaminase, 4 mM MEM sodium pyruvate, and 0.1% protease free BSA). Cells were incubated with coelenterazine h (Molecular Probes) at room temperature for 4 hours before testing.
To measure mGluR5 antagonist activity, cell suspensions containing test compound were mixed with EC80 glutamate and emission of light was recorded. Reference and test compounds were tested at several concentrations in duplicate to obtain dose response curves using the Prism GraphPad software (GraphPad Software Inc.). IC50 values were calculated from the dose response curves using the equation:
Y=Bottom+(Top−Bottom)/(1+10̂((LogEC50−X)*HillSlope)).

T1 sequence (P41594 21-1212): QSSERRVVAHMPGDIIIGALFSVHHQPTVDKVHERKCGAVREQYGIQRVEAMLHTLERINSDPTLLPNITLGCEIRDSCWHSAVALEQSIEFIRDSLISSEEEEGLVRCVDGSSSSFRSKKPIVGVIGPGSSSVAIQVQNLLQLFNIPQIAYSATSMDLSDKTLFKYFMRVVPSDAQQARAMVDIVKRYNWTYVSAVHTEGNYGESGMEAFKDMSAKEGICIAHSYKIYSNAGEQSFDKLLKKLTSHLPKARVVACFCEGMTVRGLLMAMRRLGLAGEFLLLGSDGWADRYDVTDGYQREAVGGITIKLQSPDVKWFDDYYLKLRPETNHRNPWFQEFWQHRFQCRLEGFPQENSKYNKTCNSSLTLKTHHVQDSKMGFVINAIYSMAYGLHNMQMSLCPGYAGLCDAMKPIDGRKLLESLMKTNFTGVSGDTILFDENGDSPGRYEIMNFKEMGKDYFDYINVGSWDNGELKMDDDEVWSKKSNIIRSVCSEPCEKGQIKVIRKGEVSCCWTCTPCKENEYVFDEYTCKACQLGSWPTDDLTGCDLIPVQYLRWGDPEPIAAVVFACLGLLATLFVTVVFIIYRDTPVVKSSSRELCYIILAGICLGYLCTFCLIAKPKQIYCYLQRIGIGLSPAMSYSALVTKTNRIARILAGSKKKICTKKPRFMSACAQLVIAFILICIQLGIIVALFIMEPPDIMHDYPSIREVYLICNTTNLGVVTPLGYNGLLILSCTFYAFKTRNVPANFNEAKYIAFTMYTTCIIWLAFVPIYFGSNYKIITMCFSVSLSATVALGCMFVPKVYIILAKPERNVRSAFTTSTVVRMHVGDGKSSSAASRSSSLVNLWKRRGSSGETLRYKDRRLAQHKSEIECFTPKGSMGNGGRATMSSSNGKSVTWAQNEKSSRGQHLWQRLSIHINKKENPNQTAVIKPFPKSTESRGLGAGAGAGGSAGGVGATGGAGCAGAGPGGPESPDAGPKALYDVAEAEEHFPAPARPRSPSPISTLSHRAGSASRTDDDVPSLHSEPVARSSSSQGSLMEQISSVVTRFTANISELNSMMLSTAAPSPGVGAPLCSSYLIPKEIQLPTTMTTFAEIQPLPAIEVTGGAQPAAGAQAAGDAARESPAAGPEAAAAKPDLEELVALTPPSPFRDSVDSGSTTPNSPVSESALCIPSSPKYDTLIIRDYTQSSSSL

Structure (SMILES): Cn1nc(C(=O)Nc2cccc(Cl)c2)c2c1-c1cc(Cl)ccc1OC2 [Example 5, N-(3-Chlorophenyl)-8-chloro-1-methyl-1,4-dihydrochromeno[4,3-c]pyrazole-3-carboxamide]
- IC50 (Table 2): > 10 µM

Structure (SMILES): Cn1nc(C(=O)Nc2cccc(Cl)c2)c2c1-c1ccccc1CC2 [Example 14, N-(3-Chlorophenyl)-1-methyl-4,5-dihydro-1H-benzo[g]indazole-3-carboxamide]
- IC50 (Table 2): < 1 µM

Structure (SMILES): Cn1nc(C(=O)Nc2cccc(Cl)c2)c2c1-c1ccsc1CC2 [N-(3-chlorophenyl)-1-methyl-4,5-dihydro-1H-thieno[2,3-g]indazole-3-carboxamide]
- IC50 (Table 3): > 10 µM

Structure (SMILES): Cc1cccc(NC(=O)c2nn(C)c3c2COc2cc(F)ccc2-3)n1 [Example 6, 7-Fluoro-1-methyl-N-(6-methylpyridin-2-yl)-1,4-dihydrochromeno[4,3-c]pyrazole-3-carboxamide]
- IC50 (Table 2): > 10 µM

Structure (SMILES): Cn1nc(C(=O)Nc2ccc(Cl)cc2)c2c1-c1ccccc1OC2 [N-(4-chlorophenyl)-1-methyl-1,4-dihydrochromeno[4,3-c]pyrazole-3-carboxamide]
- IC50 (Table 3): > 10 µM

Structure (SMILES): Cn1nc(C(=O)Nc2cc(C#N)ccn2)c2c1-c1ccccc1OC2 [Example 8, N-(4-Cyanopyridin-2-yl)-1-methyl-1,4-dihydrochromeno[4,3-c]pyrazole-3-carboxamide]
- IC50 (Table 2): > 10 µM

Structure (SMILES): Cn1nc(C(=O)Nc2cccc(C(F)(F)F)c2)c2c1-c1ccccc1OC2 [1-methyl-N-(3-(trifluoromethyl)phenyl)-1,4-dihydrochromeno[4,3-c]pyrazole-3-carboxamide]
- IC50 (Table 3): > 10 µM

Structure (SMILES): Cn1nc(C(=O)Nc2cccc(Cl)c2)c2c1-c1ccccc1SC2 [N-(3-chlorophenyl)-1-methyl-1,4-dihydrothiochromeno[4,3-c]pyrazole-3-carboxamide]
- IC50 (Table 3): < 1 µM

Structure (SMILES): Cn1nc(C(=O)Nc2ccc(Cl)cn2)c2c1-c1ccccc1OC2 [N-(5-chloropyridin-2-yl)-1-methyl-1,4-dihydrochromeno[4,3-c]pyrazole-3-carboxamide]
- IC50 (Table 3): < 1 µM

Structure (SMILES): COc1cccc(NC(=O)c2nn(C)c3c2COc2ccccc2-3)c1 [N-(3-methoxyphenyl)-1-methyl-1,4-dihydrochromeno[4,3-c]pyrazole-3-carboxamide]
- IC50 (Table 3): > 10 µM
